Assay results reported in US9724351B2, “Compounds for the treatment of paramoxyvirus viral infections” (priority 2012, dated 2017).

Experiments:
[1] = Cytotoxicity Determination; format: cell-based; conditions: human, HEp-2 cells, without addition of virus, CCK-8 readout, bins (Table 4: greater than 100 μM; Table 5: equal to or less than 100 μM and greater than 10 μM), read-out: 50% cytotoxicity concentration (CC50)
In short: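 CC50 was derived from CCK-8 optical density after a 3-4 h reagent incubation. Before that, cells without virus had been treated for 5 days at 37 °C, 5% CO2 with compound at seven ½-step final concentrations from 100 μM, in duplicate wells.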

[2] = test system: Respiratory Syncytial Virus (RSV) long strain (ATCC#VR-26); assay: RSV Antiviral Assay (CPE reduction assay); format: cell-based; conditions: human respiratory syncytial virus, 120 h; HEp-2 cells infected with RSV long strain, 5 days, CCK-8 readout; bins (Table 2: less than 1 μM; Table 3: equal to or higher than 1 μM and less than 50 μM); read-out: 50% effective concentration (EC50)
In short: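 Cytopathic-effect protection measured after 5 days at 37 °C, 5% CO2 via CCK-8 dehydrogenase readout at 450 nm (630 nm reference), EC50 regressed from mean O.D. Host HEp-2 cells received RSV long strain at 100 TCID50/well; compound 9-point ⅓ series starting 100 μM or 1 μM, 1% DMSO, duplicate wells.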

| SMILES | CC50 at 5 days [1] [µM] | EC50 [2] [µM] |
| --- | --- | --- |
| C=C(C)/C(=N\NC(=O)CNC(=O)c1ccc(OC)c(OC)c1)c1csc2ccccc12 [Compound 434] | > 100 | 1 to 50 |
| COc1ccc(C(=O)NCC(=O)N/N=C2\CCc3sc4ccccc4c32)cc1OC [Compound 418] | 10 to 100 | 1 to 50 |
| COc1ccc(C(=O)NCC(=O)N/N=C(\C)c2noc3ccccc23)cc1OC [Compound 491] | > 100 | 1 to 50 |
| COCCc1ccc(C(=O)NCC(=O)c2ccc(OC)c(-c3ccc(F)c(Cl)c3)n2)cc1OC [Compound 1331] | 10 to 100 | 1 to 50 |
| COc1cc(C(=O)NCC(=O)N(C)/N=C(\C)c2csc3c(F)cccc23)ccc1OCCO [Compound 651] | > 100 | < 1 |
| CCc1ccc(C(=O)CNC(=O)c2ccc(OCCO)c(OC)c2)nc1-c1csc2c(F)cccc12 [Compound 2106] | 10 to 100 | < 1 |
| COc1cc(C(=O)NCC(=O)c2ccc(OC)c(-c3ccc(F)cc3F)n2)ccc1OCCO [Compound 1601] | > 100 | < 1 |
| COc1ccc(C(=O)NCC(=O)c2ccc(OC)c(-c3ccc(C(=O)N4CCCCC4)cc3)n2)cc1OC [Compound 1518] | 10 to 100 | 1 to 50 |
| COc1ccc(C(=O)NCC(=O)c2cccc(-c3csc4c(F)cccc34)n2)cc1OC [Compound 1202] | > 100 | 1 to 50 |
| COc1cc(C(=O)NCC(=O)c2ccc(OC)c(-c3ccc(F)c(C)c3)n2)ccc1OCCO [Compound 1325] | > 100 | < 1 |
| COc1ccc(C(=O)NCC(=O)N/N=C(\C)c2coc3ccccc23)cc1OC [Compound 439] | > 100 | 1 to 50 |
| CCCC/C(=N\NC(=O)CNC(=O)c1ccc(OC)c(OC)c1)c1csc2c(F)cccc12 [Compound 400-7] | 10 to 100 | < 1 |
| CCOc1ccc(C(=O)NCC(=O)N(C)/N=C/c2csc3c(F)cccc23)cc1OC [Compound 400-25] | > 100 | < 1 |
| CCOc1ccc(C(=O)NCC(=O)N/N=C2\CN(CC)Cc3sc4c(F)cccc4c32)cc1OC [Compound 464] | > 100 | < 1 |
| COc1cc(C(=O)NCC(=O)c2cccc(-c3csc4c(F)cccc34)n2)ccc1O[C@H]1CC[C@@H](O)CC1 [Compound 1225] | > 100 | 1 to 50 |
| COc1cc(C(=O)NCC(=O)c2ccc(OC)c(-c3csc4ccc(F)cc34)n2)ccc1OCCO [Compound 1609] | > 100 | < 1 |
| CCOc1ccc(C(=O)NCC(=O)N/N=C(\CCc2ccccc2)c2csc3ccccc23)cc1OC [Compound 459] | > 100 | < 1 |
| COc1ccc(C(=O)NCC(=O)c2ccc(OC)c(-c3ccc(F)c(Cl)c3)n2)cc1F [Compound 2642] | > 100 | 1 to 50 |
| COc1ccc(C(=O)NCC(=O)N/N=C/c2cc3c(F)cccc3s2)cc1OC [Compound 400-2] | 10 to 100 | 1 to 50 |
| COc1cc(C(=O)NCC(=O)c2ccc(OC)c(-c3c(C)[nH]c4c(F)cccc34)n2)ccc1OCCO [Compound 4002] | 10 to 100 | < 1 |

| SMILES | CC50 at 5 days [1] [µM] | EC50 [2] [µM] |
| --- | --- | --- |
| CCNc1ccc(C(=O)NCC(=O)N/N=C(\C)c2csc3ccccc23)cc1OC [Compound 508] | > 100 | 1 to 50 |
| COc1ccc(C(=O)NCC(=O)N/N=C/c2csc3ccccc23)cc1OC [Compound 401] | 10 to 100 | 1 to 50 |
| CCN(CC)c1ccc(C(=O)NCC(=O)N/N=C(\C)c2csc3ccccc23)cc1 [Compound 469] | 10 to 100 | 1 to 50 |
| CCOc1ccc(C(=O)NCC(=O)N/N=C(\C)c2csc3cnccc23)cc1OC [Compound 466] | > 100 | 1 to 50 |
| COc1ccc(C(=O)NCC(=O)N/N=C/c2ccc3ccsc3c2)cc1OC [Compound 496] | 10 to 100 | 1 to 50 |
| COc1cc(C(=O)NCC(=O)c2ccc(OC)c(-c3ccc(C)cc3)n2)ccc1OCCO [Compound 1606] | > 100 | < 1 |
| COc1cc(C(=O)NCC(=O)c2ccc(OC)c(-c3ccc(F)c(Br)c3)n2)ccc1OCc1cnc[nH]1 [Compound 1333] | 10 to 100 | < 1 |
| COc1cc(C(=O)NCC(=O)c2ccc(OC)c(-c3ccc(Cl)c(C(F)(F)F)c3)n2)ccc1OCCO [Compound 1623] | > 100 | < 1 |
| COc1ccc(C(=O)CNC(=O)c2ccncn2)nc1-c1ccc(F)c(Cl)c1 [Compound 4205] | > 100 | 1 to 50 |
| COc1ccc(C(=O)NCC(=O)c2ccc(OC)c(-c3ccc4cn(C)nc4c3)n2)cc1OC [Compound 1538] | > 100 | 1 to 50 |
| CCOc1ccc(C(=O)NCC(=O)N/N=C/c2csc3ccccc23)cc1OCC [Compound 231] | 10 to 100 | 1 to 50 |
| COc1cc(C(=O)N[C@H](CCCCN)C(=O)c2ccc(OC)c(-c3csc4c(F)cccc34)n2)ccc1OCCO [Compound 1836] | 10 to 100 | 1 to 50 |
| CCN(CC)c1cc(C(=O)NCC(=O)N/N=C(\C)c2csc3ccccc23)cs1 [Compound 511] | 10 to 100 | 1 to 50 |
| COc1ccc(C(=O)NCC(=O)c2ccc(OC)c(-c3ccc4scnc4c3)n2)cc1OC [Compound 1539] | > 100 | 1 to 50 |
| COc1cc(C(=O)NCC(=O)c2ccc(OC)c(-c3c(Cl)sc4c(F)cccc34)n2)ccc1OCCO [Compound 2621] | > 100 | < 1 |
| COc1ccc(C(=O)NCC(=O)N/N=C(\C)c2csc3ccc(O)cc23)cc1OC [Compound 400-8] | 10 to 100 | 1 to 50 |
| COc1cc(C(=O)CNC(=O)c2ccc(OC)c(OC)c2)nc(-c2ccc(O)cc2)c1 [Compound 1401] | 10 to 100 | 1 to 50 |
| COc1ccc(C(=O)NCC(=O)c2ccc(OC)c(-c3ccc4cnn(C)c4c3)n2)cc1OC [Compound 1503] | 10 to 100 | 1 to 50 |
| COc1ccc(C(=O)NCC(=O)c2cccc(-n3ncc4c(F)cccc43)n2)cc1OC [Compound 2601] | > 100 | 1 to 50 |
| CCCC/C(=N\NC(=O)CNC(=O)c1ccc(OC)c(OCC)c1)c1csc2ccccc12 [Compound 246A] | 10 to 100 | < 1 |

| SMILES | CC50 at 5 days [1] [µM] | EC50 [2] [µM] |
| --- | --- | --- |
| CCc1cc(C(=O)CNC(=O)c2ccc(OCCO)c(OC)c2)nc(-c2c[nH]c3c(F)cccc23)c1 [Compound 2112] | > 100 | < 1 |
| COc1ccc(C(=O)NCC(=O)N/N=C(\C)c2csc3ccccc23)cc1OC [Compound 411] | 10 to 100 | < 1 |
| COc1ccc(C(=O)NCC(=O)c2csc(-c3csc4c(F)cccc34)n2)cc1OC [Compound 1210] | > 100 | 1 to 50 |
| COCC/C(=N/NC(=O)CNC(=O)c1ccc(OC)c(OC)c1)c1csc2ccccc12 [Compound 494] | > 100 | < 1 |
| COc1ccc(C(=O)NCC(=O)N(C)/N=C/c2c(C#N)sc3c(F)cccc23)cc1OCCO [Compound 2303] | > 100 | 1 to 50 |
| COc1cc(C(=O)NCC(=O)c2ccc(OC)c(-c3ccc(Cl)cc3)n2)ccc1OCCO [Compound 1607] | 10 to 100 | < 1 |
| COc1ccc(C(=O)NCC(=O)c2c[nH]cc(-c3csc4c(F)cccc34)c2=O)cc1OC [Compound 1337] | > 100 | 1 to 50 |
| COc1cc(C(=O)NCC(=O)N2CCN(c3ccc(F)c(Cl)c3)C2=O)ccc1OCCO [Compound 3900] | > 100 | 1 to 50 |
| COc1cc(Br)c(C(=O)NCC(=O)N/N=C(\C)c2csc3ccccc23)cc1OC [Compound 479] | 10 to 100 | 1 to 50 |
| COc1ccc(C(=O)NCC(=O)c2ccc(OC)c(-c3ccc(F)c(Cl)c3)n2)cc1OC [Compound 1529] | > 100 | < 1 |
| COc1ccc(C(=O)NCC(=O)c2ccc(OC)c(-c3ccc4[nH]cnc4c3)n2)cc1OC [Compound 1534] | > 100 | 1 to 50 |
| CCN(CC)c1cc(C(=O)NCC(=O)N/N=C(\C)c2csc3ccccc23)ccc1OC [Compound 504] | 10 to 100 | 1 to 50 |
| COc1cc(C(=O)NCC(=O)c2ccc(OC)c(-c3csc4ccc(C#N)cc34)n2)ccc1OCCO [Compound 1620] | 10 to 100 | 1 to 50 |
| CCOc1ccc(C(=O)NCC(=O)N/N=C(\CC2CCCCC2)c2csc3ccccc23)cc1OC [Compound 460] | > 100 | < 1 |
| COCCOc1ccc(C(=O)NCC(=O)c2ccc(OC)c(-c3ccc(F)c(Cl)c3)n2)cc1C [Compound 1317] | > 100 | 1 to 50 |
| COc1ccc(C(=O)N(C)NC(=O)c2cccc(-c3csc4c(F)cccc34)n2)cc1OC [Compound 3101] | 10 to 100 | 1 to 50 |
| COc1cc(C(=O)NCC(=O)c2ccc(OC)c(-c3ccc(F)c(O)c3)n2)ccc1OCCO [Compound 1328] | > 100 | < 1 |
| COc1ccc2scc(/C(C)=N/NC(=O)CNC(=O)c3ccc(OC)c(OC)c3)c2c1 [Compound 400-9] | 10 to 100 | 1 to 50 |
| COc1cc(C(=O)NCC(=O)c2cccc(-c3csc4c(F)cccc34)n2)ccc1O [Compound 1226] | 10 to 100 | 1 to 50 |
